Data: article PMC3050001 (Science (New York, N.Y.), 2010)

Columns and labels:
[1] = test system: synchronized parasites at ring, trophozoite and schizont stages; assay: In vitro drug sensitivity assay with synchronized parasites; type: cell-based, Plasmodium falciparum
P. berghei = type: in vivo, Plasmodium berghei (mice)
[2] = test system: P. vivax clinical isolates; assay: Ex vivo sensitivity assay with fresh clinical isolates
[3] = test system: P. falciparum parasites (Dd2, NITD609-R^Dd2); assay: [35S]-Met/Cys incorporation assay; type: cell-based, Plasmodium falciparum; conditions: P. falciparum Dd2, within one hour
[4] = test system: Dd2^attB parasites expressing mutant PfATP4; assay: Growth inhibition of transgenic pfatp4 lines
[5] = type: in vivo, mice and rats
[6] = miniaturized Ames assay
[7] = test system: panel of human G-protein coupled receptors, enzymes and ion channels
[8] = male rats, oral, daily for 14 days
in vivo = conditions: male, rat, po
[9] = test system: P. falciparum clinical isolates; assay: Ex vivo sensitivity assay with fresh clinical isolates; conditions: Plasmodium falciparum, in Homo sapiens
[10] = test system: drug-selected Dd2 parasites (NITD609-R^Dd2, NITD678-R^Dd2); conditions: for cross-resistance in spiroindolone-selected mutants: NITD609- and NITD678-selected Dd2 mutants
P. falciparum strains = conditions: culture-adapted P. falciparum strains incl. drug-resistant strains

CO[C@H]1O[C@@H]2O[C@@]3(C)CC[C@H]4[C@H](C)CC[C@@H]([C@H]1C)[C@@]24OO3 [Artemether, reference compound]
inhibition of parasite growth ([1]; treatment at 8 nM for 6 hours): Strong inhibition
Survival (P. berghei; 1 × 100 mg/kg oral, control animals 6–7 days): 7.6 days

CCN(CC)CCCC(C)Nc1ccnc2cc(Cl)ccc12 (stereo not drawn) [Chloroquine, reference compound]
stage-specific sensitivity (ring vs trophozoite) ([2]; P. vivax, drug exposure 20 h, growth determined after 42 hours): significant stage-specific sensitivity

OC(c1cc(C(F)(F)F)nc2c(C(F)(F)F)cccc12)C1CCCCN1 (stereo not drawn) [Mefloquine]
effect on protein synthesis ([35S]-Met/Cys incorporation) [3]: only showed a nominal decrease
potency against wild-type vs transgenic strains [4]: equivalent potency

C[C@H]1Cc2c([nH]c3cc(Cl)c(F)cc23)[C@@]2(N1)C(=O)Nc1ccc(Cl)cc12 [NITD609]
sensitivity of parasite blood stages ([1]; high concentration, ≈100 × IC50 value): all stages (rings, trophozoites and schizonts) were similarly sensitive
sensitivity of parasite blood stages ([1]; low concentrations, ≈1 or 10 × IC50 value): schizonts were the most susceptible
effect on protein synthesis ([35S]-Met/Cys incorporation) [3]: effectively blocked protein synthesis
volume of distribution ([5]; mice and rats, oral and intravenous administration): moderate
bioavailability ([5]; orally administered): excellent
half-life ([5]; orally administered): long
oral absorption ([5]; orally administered): well absorbed
ED90 (P. berghei; oral, P. berghei mouse model): 2.7 mg/kg
intrinsic mutagenic activity [6]: lacked intrinsic mutagenic activity
binding to off-target panel [7]: no significant binding
adverse events / histopathological findings [8]: no adverse events or significant histopathological findings were observed
AUC(0-t) (in vivo): 29400 to 56500 ng·h/mL
logD (physchem; pH 7.4): 4.6
pKa (physchem; pKa^2): 10.7
IC50 ([2]; Plasmodium vivax, in Homo sapiens): < 10 nM
IC50 [9]: < 10 nM
IC50 ([10]; Plasmodium falciparum, DD2, read-out: mean IC50 of drug-selected parasites): 3 to 11 nM
IC50 (P. falciparum strains): 0.5 to 1.4 nM

COc1ccc(C[C@H]2NC[C@H](O)[C@H]2OC(C)=O)cc1 [anisomycin]
effect on protein synthesis ([35S]-Met/Cys incorporation) [3]: A similar effect was observed

C[C@@H]1CC[C@H]2[C@@H](C)C(=O)O[C@@H]3O[C@@]4(C)CC[C@@H]1[C@]32OO4 [artemisinin]
effect on protein synthesis ([35S]-Met/Cys incorporation) [3]: only showed a nominal decrease
cross-resistance in spiroindolone-selected mutants [10]: None of the selected mutants showed cross-resistance
potency against wild-type vs transgenic strains [4]: equivalent potency

C[C@@H]1C[C@@H]([C@H](O)CC2CC(=O)NC(=O)C2)C(=O)[C@@H](C)C1 [cycloheximide]
effect on protein synthesis ([35S]-Met/Cys incorporation) [3]: A similar effect was observed

CC(=O)C1=C(O)[C@@H]2[C@H]3c4c[nH]c5cccc(c45)C[C@H]3C(C)(C)N2C1=O [cyclopiazonic acid]
cross-resistance in spiroindolone-selected mutants [10]: no cross-resistance

C/C=C(/C)C(=O)O[C@H]1C(C)=C2[C@H]([C@@H]1OC(=O)CCCCCCC)[C@@](C)(OC(C)=O)C[C@H](OC(=O)CCC)[C@@]1(O)[C@H]2OC(=O)[C@@]1(C)O [thapsigargin]
cross-resistance in spiroindolone-selected mutants [10]: no cross-resistance
